Values of other authors in patent US20050019366A1, “Drug-coated stents and methods of use therefor” (priority 2002, published 2005).

Tested on: restenosis after angioplasty
Conditions: probucol 500 mg; twice daily for four weeks prior and six months after angioplasty

Structure (SMILES): CC(C)(Sc1cc(C(C)(C)C)c(O)c(C(C)(C)C)c1)Sc1cc(C(C)(C)C)c(O)c(C(C)(C)C)c1 [Probucol, probucol]
- reduction of the rate of restenosis after angioplasty: ~50%
